Measured values as given in patent publication US12558367B2, “Nicotinamide riboside and derivatives thereof in intravenous formulations and methods of use thereof” (ChromaDex Inc., priority 2023, dated 2026).

Assays:
blood NAD+ = conditions: cited from earlier work
[1] = Energy/Fatigue Scale, randomized placebo-controlled pilot clinical study (Study 1); assay type: in vivo, human; conditions: for Mental Energy / Perceived Fatigue: possible scores 5-30; for General Energy / Motivation: possible scores 6-36; for Physical Energy: possible scores 7-42; for Emotional Energy: possible scores 8-48
Method: (§1) The present randomized, double-blinded, placebo-controlled, pilot clinical study was initiated with the primary aim of investigating the safety, tolerability, and the blood NAD+-boosting efficacy of an acute, single dose of NR IV (500 mg, test), NAD+ IV (500 mg, active comparator), oral NR (500 mg, bridge), and saline IV (placebo control) in generally healthy adult participants. The study consisted of two parts; data from 37 and 16 participants in the first and second phases, respectively, were analyzed.
(§2) This was a 2-part study. The first study was a 4-arm randomized, placebo-controlled parallel trial. The 3 IV arms were double-blinded, while the 4th arm involved oral administration making it naturally unblinded. Participants were randomized at a 10:10:10:6 ratio to intravenous placebo (saline), NAD^+, NR, or oral NR (oral). The second study was a randomized parallel design trial with two arms for the purpose of evaluating the actual differences in infusion rates in real time. Participants were randomized at a 1:1 ratio to intravenous NR or NAD^+.
(§3) Vials of 50 mg/ml of NR or NAD+ were prepared in 10 ml of sterile water by DCA Pharmacy (Franklin, Tennessee) by prescription, for research administration only, and maintained in refrigerated conditions until use. For participants who were randomized to the test group or to the active comparator group, the NR or NAD+ was added to 500 ml of normal saline (B Braun 0.9% sodium chloride injection USP, preservative free) prior to intravenous administration. Those randomly assigned to the saline group received 500 ml of normal saline. Participants that were randomly assigned to the oral arm were provided with 500 mg of NR which was taken with water.
(§4) To assess vital signs and subdomains on the sleep and energy scales, between-groups comparisons were assessed using analysis of covariance (ANCOVA) with baseline scores as the covariate and a Bonferroni correction. Levene's test was used to check and confirm the assumption of homogeneity of variances.
(§5) Tables A-D below reflect mean scores for each group at days 7 and 14. An ANCOVA was used to identify statistical significant differences, using baseline scores as the covariate which helps to account for the natural variation in psychological measurements, increasing the power of the study.
It is noted that the energy scale measures disruptions to energy levels; lower scores reflect greater levels of energy.

[2] = Sleep Scale, pilot clinical study (Study 1); assay type: in vivo, human; conditions: Sleep Scale Day 14, mean score
Method: as §1, §2, §3, §4, §5
For the sleep scale, the greatest improvements were seen on the scale of sleep latency, which refers to the ability to fall asleep at night, and sleep-related cognitive effects.

[3] = Vital signs post-intervention (Study 1); assay type: in vivo, human; conditions: single 500 mg dose, mean (SD)
Method: as §1
(§6) The safety of the IV infusion was evaluated using a combination of endpoints, including tolerable infusion rate, total number of adverse effects, participant vital signs, a complete blood count (CBC), a comprehensive metabolic panel (CMP), glucose and insulin levels, and the participant's self-reported subjective experience.
as §4
For the first study, data from 37 patients were available for intent to treat analysis; for the second study, data from 16 patients were available for intent to treat analysis.

[4] = Patient subjective experience and adverse event monitoring; assay type: in vivo, human; conditions: intervention and follow-up period up to 14 days
Method: as §6
Adverse event monitoring began on the first day of the study and continued for 14 days (study one) or 7 days (study two). Participants were instructed to notify the research staff of any new or unusual symptoms during the trial and open-ended questions during data collection solicited unexpected side effects.

[5] = Clinical chemistry (comprehensive metabolic panel); assay type: in vivo, human; conditions: Study 1
Method: as §6
(§7) Between-groups comparisons of each outcome measured in the […] and CMP were evaluated using mixed between-within subjects ANOVA with the timepoint being the within subjects' factor and the group assignment as the between subjects factor. Mauchly's test of sphericity was used to confirm assumptions. Violations of the assumption of sphericity are addressed with the Greenhouse-Geisser correction.
(§8) Additional analyses were conducted using GraphPad Prism (Ver. 10.0.2). Statistical significance was determined as p<0.05, with comparisons of the test articles compared to saline or between group comparisons. 2way ANOVA with Tukey's multiple comparisons test with a single pooled variance was used to determine significance in hematology, clinical chemistry, and vitals. Time in chair was analyzed for study 1 by a one-way ANOVA with multiple comparisons, study 2 was analyzed by unpaired t-test. The baseline variable of age was analyzed for differences by one way ANOVA with multiple comparisons for study.

[6] = Hematology (complete blood count); assay type: in vivo, human; conditions: baseline to three-hours post-infusion
Method: as §6, §7, §8

whole blood NAD+ = test: NAD+ analysis of dried blood spots (DBS) by LC/MS; assay type: in vivo, human; set-up: Mean NAD: unit not given here; conditions: dried blood spot
Method: Finger punctures were conducted using a lancet. Blood was then applied to the circles on the dried blood spot (DBS) card and allowed to dry for a minimum of 3 hours. […] See, for example, FIG. 3. The use of dried blood spots (DBS) allowed for the analysis of NAD+ levels based upon samples that could be prepared at the clinic or by the study participants from home. While 36 of 37 participants in study 1 utilized the DBS at all time points, not all samples were analyzable. […] However, the model was significant for the 3-hour timepoint (p=0.010; […] At 6 hours, near-significant differences were observed between the NAD+ and NR IV group (t=1.99, p=0.055), and significant differences were observed between the NR IV and saline groups (t=−2.80, p=0.009), and between the NR IV and oral NR groups (t=−2.59, p=0.015). See, Tables 3-9 below. Tables 3-9 below reflect mean/SD for each group at each of the 7 timepoints. A basic ANOVA was conducted to investigate the data.

[7] = Energy/Fatigue Scale Day 7, mean score, lower = greater energy
[8] = Energy/Fatigue Scale Day 14, mean score, lower = greater energy

Compound: NC(=O)c1ccc[n+]([C@@H]2O[C@H](COP(=O)([O-])O)[C@@H](O)[C@H]2O)c1 [NMN, Nicotinamide mononucleotide]
- safety and tolerability (blood NAD+; 300 mg in 100 mL saline, 5 mL/min IV, 10 healthy Japanese adults (Kimura et al.)): safe and well-tolerated
- blood NAD+ levels (blood NAD+; intravenous NMN (Kimura et al.)): elevated blood NAD+ levels at multiple timepoints relative to baseline

Compound: NC(=O)c1ccc[n+]([C@@H]2O[C@H](CO)[C@@H](O)[C@H]2O)c1.[Cl-] [oral NR, nicotinamide riboside chloride]
- Mental Energy [1, 7]: 14.90
- Perceived Fatigue [1, 7]: 14.10
- General Energy [1, 7]: 23.20
- Motivation [1, 7]: 12.20
- Physical Energy ([1]; Energy/Fatigue Scale Day 7, mean score, lower scores = greater energy, single 500 mg dose): 19.80
- Emotional Energy [1, 7]: 32.50
- Mental Energy [1, 8]: 15.67
- Perceived Fatigue [1, 8]: 16.44
- General Energy [1, 8]: 23.67
- Motivation [1, 8]: 12.56
- Physical Energy [1, 8]: 20.00
- Emotional Energy [1, 8]: 32.44
- Sleep Maintenance ([2]; possible scores 3-18): 7.50
- Sleep Latency ([2]; possible scores 4-24): 10.00
- Cognitive Effects ([2]; possible scores 5-30): 16.36
- Daytime Sleepiness ([2]; possible scores 5-30): 15.63
- Emotional Effects ([2]; possible scores 5-30): 20.50
- Productivity ([2]; possible scores 5-30): 12.88
- Sleep Inertia ([2]; possible scores 5-30): 15.88
- Post-intervention diastolic blood pressure [3]: 71.00 (SD: 6.24) mmHg
- Post-intervention heart rate [3]: 65.78 (SD: 7.95) beats per minute
- Post-intervention systolic blood pressure [3]: 108.56 (SD: 9.08) mmHg
- safety / attributable adverse events [4]: safe and well tolerated
- clinically relevant changes in comprehensive metabolic panel or CBC with differential [5]: did not display any clinically relevant changes
- elevations in white blood cells and neutrophils [6]: not observed
- Mean NAD (whole blood NAD+; 3 Hours Post-Intervention): 18.54
- Mean NAD (whole blood NAD+; 6 Hours Post-Intervention): 18.01
- Mean NAD (whole blood NAD+; 24 Hours Post-Intervention): 23.25
- Mean NAD (whole blood NAD+; Baseline Scores): 18.34
- Mean NAD (whole blood NAD+; Immediately Post-Intervention (10 minutes after infusion)): 19.16
